{"source": "PubChem BioAssay AID2305", "about": "(GlaxoSmithKline (GSK), 2010)"}
{"system": "P. falciparum 3D7 growth, pLDH absorbance", "assay": "P. falciparum 3D7 growth inhibition, dose response, strain 3D7 (AID 2305)", "units": {"IC50": "nM"}}
{"smiles": "C=C[C@H]1CN(CCCCCCC)CC[C@H]1C[C@@H](Cc1ccnc2ccc(OC)cc12)OC(=O)[C@](OC)(c1ccccc1)C(F)(F)F", "IC50": 880}
{"smiles": "Cc1nc(N)nc(N)c1-c1cc(Cl)c(Cl)c(Cl)c1", "IC50": 830}
{"smiles": "c1ccc(C2CCC(N3CCC(N4CCN(c5ccccc5)CC4)CC3)CC2)cc1", "note": "(stereo not drawn)", "IC50": 760}
{"smiles": "Cc1c(-c2ccc3c(c2)C(NCCCN2CCCCC2)CC3)cnc(N)c1C", "note": "(stereo not drawn)", "IC50": 1110}
{"smiles": "FC(F)(F)c1cccc(CNCCCCCNCc2ccc(Cl)cc2)c1", "IC50": 1030}
{"smiles": "CN(c1ccccc1)S(=O)(=O)c1cccc(NC(=O)c2ccc(-n3ccnc3)c([N+](=O)[O-])c2)c1", "IC50": 1130}
{"smiles": "CCCNCc1ccc(-c2ccc(CN(CCOC)C(=O)c3cccc(C#N)c3)cc2)nc1", "IC50": 1230}
{"smiles": "COc1ccc(NC(=O)/C=C/c2ccc(Cl)c(Cl)c2)cc1N1CCN(C)CC1", "IC50": 980}
{"smiles": "NC(N)=NCCN(Cc1ccccc1)c1ccc(Cl)cc1", "IC50": 50}
{"smiles": "NC(Cc1ccc(Cl)cc1)=NCCN1CCCCCC1", "IC50": 740}
{"smiles": "CN(C)c1cccc(-c2cnc3ccc(NCc4cccc(Cl)c4)nn23)c1", "IC50": 700}
{"smiles": "CO/C(=C\\C=C\\c1cc2cc(Cl)c(Cl)cc2[nH]1)C(=O)NC1CCN(CCCc2ccccc2)CC1", "IC50": 770}
{"smiles": "O=C(Nc1ccc(S(=O)(=O)N2CCCC2)cc1)c1cc(-c2cccnc2)nc2ccc(Cl)cc12", "IC50": 300}
{"smiles": "CCOc1cc(Cc2cnc(N)nc2N)cc(Br)c1OC", "IC50": 1440}
{"smiles": "CNC(=O)c1ccccc1Nc1nc(Nc2ccc(C(=O)O)cc2)ncc1Cl", "IC50": 950}
{"smiles": "O=C(NCC1CCN(CCN2CCC(c3cn(CCO)c4ccccc34)CC2)CC1)c1ccc(-c2ccc(C(F)(F)F)cc2)cc1", "IC50": 440}
{"smiles": "COc1ccc2ccccc2c1CCCCN1CCN(CC(c2ccc(F)cc2)N2CCN(C(C)C)CC2)CC1", "note": "(stereo not drawn)", "IC50": 810}
{"smiles": "O=C(/C=C/c1ccc(Cl)c(Cl)c1)NCCCCCN1CCCN(C(=O)Nc2ccc(Cl)cc2)CC1", "IC50": 740}
{"smiles": "Cc1ccc2c(Cl)c(C(=O)N3CCCc4ccccc43)sc2c1", "IC50": 1510}
{"smiles": "COc1ccc(Cl)c(CC2c3cc(O)c(Cl)cc3CCN2C)c1", "note": "(stereo not drawn)", "IC50": 700}
{"smiles": "COc1cc(/C=C/C(=O)NC2CCC(N3CCC(c4ccccc4C)CC3)CC2)cc(OC)c1", "note": "(stereo not drawn)", "IC50": 980}
{"smiles": "COc1ccc(CCNCc2ccc3c(C)cc(N)nc3c2)cc1", "IC50": 570}
{"smiles": "O=C(/C=C/c1cccc(Br)c1)NCCCCCN1CCC(c2c[nH]c3ccccc23)CC1", "IC50": 630}
{"smiles": "CN(C)CCN(C)Cc1ccc(-c2ccc3c(Nc4ccc(F)cc4Cl)ccnc3c2)o1", "IC50": 120}
{"smiles": "CC1(C)N=C(N)NC(NOCCCCCCONC2=NC(C)(C)N=C(N)N2)=N1", "IC50": 30}
{"smiles": "C=CCc1cc(C2CCN(CCCCNC(=O)c3ccc(-c4ccc(C#N)cc4)cc3)CC2)c(OCC(N)=O)c2c1CCCC2", "IC50": 800}
{"smiles": "COc1cccc(C=CC(=O)N(CCN)Cc2ccccc2)c1", "IC50": 820}
{"smiles": "Nc1nc(N)c2c(ccc3c2ccn3Cc2ccc(-c3ccccc3)cc2)n1", "IC50": 50}
{"smiles": "O=C(c1ccc(Cl)cc1)N1CCOC(CCN2CCC(c3ccccc3)CC2)(c2ccc(Cl)c(Cl)c2)C1", "note": "(stereo not drawn)", "IC50": 240}
{"smiles": "FC(F)(F)c1ccc2nc(-c3cccc(-c4ccc(CNCc5ccccc5)cc4)c3)[nH]c2c1", "IC50": 160}
{"smiles": "c1cncc(Oc2ccc(Nc3ccnc4cc(-c5cccc(CN6CCOCC6)c5)ccc34)cc2)c1", "IC50": 310}
{"smiles": "Cn1nc(-c2ccccc2F)c2cc(C(=O)Nc3cccnc3)sc21", "IC50": 810}
{"smiles": "CN(C)CCN(C)Cc1ccc(-c2cccc(NC(=O)c3cccc(C#N)c3)c2)cc1", "IC50": 1180}
{"smiles": "Cc1ccc2nc(NC#N)[nH]c2c1", "IC50": 1150}
{"smiles": "COc1ccc2nccc([C@@H](O)CN3CCC(NCCOc4ccccc4C#N)CC3)c2c1", "IC50": 400}
{"smiles": "Cc1cccc2[nH]c(-c3cccc(-c4ccc(NC(=O)CC5NC(=O)c6ccccc65)cc4)c3)nc12", "note": "(stereo not drawn)", "IC50": 290}
{"smiles": "CCc1cn(C)c2c(N3CCCC3=O)cc(C(=O)N[C@@H](Cc3ccccc3)[C@H](O)CNC(C)(C)c3cccc(OC)c3)cc12", "IC50": 40}
{"smiles": "O=C(Nc1ccc2c(c1)CNCC2)c1ccc(-c2ccc(Cl)cc2)cc1", "IC50": 660}
{"smiles": "Clc1ccc(Nc2nc(Nc3ccc(Cl)c(Cl)c3)nc(Sc3nc4ccccc4[nH]3)n2)cc1Cl", "IC50": 490}
{"smiles": "O=C(NCCN1CCC(NC(=O)c2ccc(-c3ccccn3)s2)CC1)c1ccc(Cl)c(Cl)c1", "IC50": 880}
{"smiles": "N#Cc1cc(C(=O)Nc2ccccc2)c(N)nc1SCC(=O)NC(c1ccccc1)c1cccs1", "note": "(stereo not drawn)", "IC50": 610}
{"smiles": "NCCC(=O)Nc1ccc(-c2cnc3[nH]cc(-c4ccc(C(=O)O)cc4)c3c2)cn1", "IC50": 840}
{"smiles": "Cc1cccc(Nc2nccc(NCC(O)c3ccc(C(F)(F)F)cc3)n2)c1", "note": "(stereo not drawn)", "IC50": 560}
{"smiles": "Cc1c(C)n(C2CCCC2)c2ncnc(OC3CCN(CC(=O)NCC4CC4)CC3)c12", "IC50": 890}
{"smiles": "Cc1cc2c(cc1C(F)(F)F)N(C(=O)Nc1cc(C(=O)NC3CCN(Cc4ccccc4)C3)cc(C(F)(F)F)c1)CC2", "note": "(stereo not drawn)", "IC50": 340}
{"smiles": "CNC(=O)c1ccccc1Nc1nc(Nc2ccc(N3CCOCC3)cc2)ncc1Cl", "IC50": 730}
{"smiles": "CCOC(=O)c1[nH]c(-c2ccc(-c3ccccc3)cc2)nc1N", "IC50": 420}
{"smiles": "CCCCCCCN1CC[C@@H](CCCc2ccnc3ccc(OC)cc23)[C@@H](CNC)C1", "IC50": 210}
{"smiles": "CC1(C)CNCc2cc(NC(=O)/C=C/c3ccc(Cl)cc3)ccc21", "IC50": 1180}
{"smiles": "CCCc1cc(C(=O)N[C@@H](Cc2ccccc2)[C@H](O)CNC(C)C)c(F)c(N2CCCC2=O)c1", "IC50": 940}
{"smiles": "O=C(NCCN1CCCC1)c1cccc(-c2ccc(-c3nc4ccc(C(F)(F)F)cc4[nH]3)cc2)c1", "IC50": 750}
{"smiles": "C#CCN(Cc1ccc2nc(N)[nH]c(=O)c2c1)c1ccc(C(=O)N[C@@H](CCC(=O)O)C(=O)O)cc1", "IC50": 220}
{"smiles": "CCOC(=O)Cc1nc(N)c(C(=O)OCC)[nH]1", "IC50": 650}
{"smiles": "CCc1cc(N2CCN(c3ccccc3F)CC2)nc(SCc2ccc(C(=O)NC3CC3)o2)n1", "IC50": 890}
{"smiles": "c1ccc(Oc2cccc(Nc3ccnc4ccccc34)c2)cc1", "IC50": 1110}
{"smiles": "COc1ccc(-n2ccnc2SCC(=O)Nc2cccc(C(F)(F)F)c2)c(OC)c1", "IC50": 220}
{"smiles": "COc1cc(Cc2cnc(N)nc2N)cc(OCCCS(=O)(=O)O)c1OC", "IC50": 1170}
{"smiles": "N#Cc1cc(C(=O)c2cc(Br)ccc2O)cn(-c2cc(Cl)cc(Cl)c2)c1=O", "IC50": 880}
{"smiles": "CNC(=O)C1Cc2c([nH]c3cc(Br)ccc23)C2(CCN(CCc3ccccc3)CC2)N1", "note": "(stereo not drawn)", "IC50": 720}
{"smiles": "N#Cc1ccc2c(c1)CN(CCC1CCC(NC(=O)c3cc4cnccc4[nH]3)CC1)CC2", "note": "(stereo not drawn)", "IC50": 800}
{"smiles": "Cc1[nH]c(C)c(-c2ccc(OCc3ccc(OC(F)(F)F)cc3)nc2)c(=O)c1Br", "IC50": 140}
{"smiles": "CN(CCCN(C)c1cc(NC(=O)c2ccc(F)cc2)ccn1)Cc1cccc(O)c1", "IC50": 1210}
{"smiles": "Cc1cccc2[nH]c(-c3ccc(-c4cccc(NC(=O)Cc5cnc[nH]5)c4)cc3)nc12", "IC50": 900}
{"smiles": "COc1ccccc1C1CCN(C2CCC(NC(=O)c3cc4ccccc4[nH]3)CC2)CC1", "note": "(stereo not drawn)", "IC50": 1210}
{"smiles": "Cc1ccc(-c2nnc(Nc3ccc(CC(N)=O)cc3)c3ccccc23)cc1S(=O)(=O)NCC1CCCO1", "note": "(stereo not drawn)", "IC50": 790}
{"smiles": "COc1ccccc1NC(=O)Nc1cccc(-c2cccc(-c3nc4ccc(C(F)(F)F)cc4[nH]3)c2)c1", "IC50": 120}
{"smiles": "CN1CCN(Cc2ccc(-c3cccc(-c4nc5ccccc5[nH]4)c3)cc2)CC1", "IC50": 1390}
{"smiles": "O=C(CSc1nc2ccc([N+](=O)[O-])cc2s1)Nc1ccccc1-c1ccccc1", "IC50": 1170}
{"smiles": "Cn1c(NC2CCN(CC3CCN(C(=O)/C=C/c4ccc(Cl)c(Cl)c4)CC3)CC2)nc2ccccc21", "IC50": 150}
{"smiles": "COC(=O)/C=C/c1ccc(C[C@@H](C)NC[C@H](O)c2cccc(C(F)(F)F)c2)cc1", "IC50": 730}
{"smiles": "c1ccc(C2CCN(Cc3ccc(-c4c[nH]c5nc(NC6CCCC6)ncc45)cc3)CC2)cc1", "IC50": 1010}
{"smiles": "O=C(NCCN1CCOCC1)c1ccc(O)c(-c2cccc(C(F)(F)F)c2)c1", "IC50": 750}
{"smiles": "Cc1noc(-c2ccc(O)cc2O)c1-c1ccc2c(c1)OCCCO2", "IC50": 890}
{"smiles": "COC(=O)c1cccc(CNCc2ccc(-c3ccc(-c4nc5ccc(C(F)(F)F)cc5[nH]4)s3)cc2)c1", "IC50": 160}
{"smiles": "CN1CCN(c2cc3c(cc2Br)CCN3C(=O)Nc2ccc(-c3cnc4ccccc4c3)cc2)CC1", "IC50": 580}
{"smiles": "COc1ccc2nccc(NN=Cc3ccccc3[N+](=O)[O-])c2c1", "IC50": 70}
{"smiles": "O=C(NC1CCN(c2ccnc3cc(Cl)ccc23)C1)c1ccc(C(F)(F)F)cc1", "note": "(stereo not drawn)", "IC50": 140}
{"smiles": "Cc1cc(C2CCN(CCCCNC(=O)c3ccc(NC(=O)c4ccc(Cl)cc4)cc3)CC2)c(C)cc1OC(C)C", "IC50": 740}
{"smiles": "O=C(/C=C/c1ccc(Cl)c(Cl)c1)N1CCCC(CCCN2CCC(c3c[nH]c4ccccc34)CC2)C1", "note": "(stereo not drawn)", "IC50": 1090}
{"smiles": "O=C(Nc1ccc(C(=O)Oc2ccc3ccccc3c2)cc1)N[C@@H](Cc1ccc(O)cc1)C(=O)NC1CCN(Cc2ccc(O)cc2)C1", "note": "(stereo partly drawn)", "IC50": 1060}
{"smiles": "CN(CCc1ccccn1)c1cccc2c1nc(-c1cccnc1)n2CCNCc1ccccc1", "IC50": 1060}
{"smiles": "CCCNCc1c(O)ccc2c(CNCCC)c(O)ccc12", "IC50": 600}
{"smiles": "COc1ccc(Nc2ncc3c(-c4cccc(NC(=O)CC(C)C)c4)c[nH]c3n2)cc1OC", "IC50": 830}
{"smiles": "COc1ccc(CCc2ccc(-c3c(C)[nH]c(C)c(Cl)c3=O)cc2)cc1OC", "IC50": 90}
{"smiles": "Cn1c(N)c(C(=O)CSc2ncc(-c3ccc(F)cc3)n2Cc2ccccc2)c(=O)n(C)c1=O", "IC50": 570}
{"smiles": "CCNc1cc(C(=O)N[C@@H](Cc2ccccc2)[C@H](O)CNCCC(C)(C)C)c(F)c(N2CCCCS2(=O)=O)c1", "IC50": 800}
{"smiles": "Nc1cccc(CNCc2cccc(-c3cccc(-c4nc5ccc(F)cc5[nH]4)c3)c2)c1", "IC50": 690}
{"smiles": "COc1ccc(-c2cccc(NC(=O)c3ccc(Cl)cc3)c2)cc1CN1CCC(O)CC1", "IC50": 790}
{"smiles": "O=C(Nc1ccc(CN2CCOCC2)cc1)c1ccc(-c2ccc(Cl)cc2)o1", "IC50": 860}
{"smiles": "Cc1cccc2[nH]c(-c3ccc(-c4cccc(NC(=O)Nc5ccsc5)c4)cc3)nc12", "IC50": 800}
{"smiles": "COCCN1CCC(N(Cc2ccc(-c3ccc(C(F)(F)F)cc3)cc2)C(=O)Cn2c(CCc3cccc(F)c3F)cc(=O)c3c2CCC3)CC1", "IC50": 1320}
{"smiles": "Cc1ccc(C)c(CC(=O)N2CCC(n3c(C)nc4ccc(F)cc43)CC2)c1", "IC50": 190}
{"smiles": "COc1ccc2nc3cc(Cl)ccc3c(NCCO)c2c1", "IC50": 800}
{"smiles": "CCOc1cccc(C(=O)Nc2ccc(-c3nc4ccccc4[nH]3)cc2)c1", "IC50": 1010}
{"smiles": "Cc1noc(C)c1-c1cccc(CNCc2cccc(-c3cccc(-c4nc5c(C)cccc5[nH]4)c3)c2)c1", "IC50": 370}
{"smiles": "Cc1cc(C(=O)NC2CCN(CC3(c4ccccc4)CCCCC3)CC2)on1", "IC50": 260}
{"smiles": "CN(C)c1cc(C(=O)N[C@@H](Cc2ccccc2)[C@H](O)CNC2CCCCC2)cc2[nH]ccc12", "IC50": 1070}
{"smiles": "NC1CCCN(Cc2cccc(-c3ccc(-c4nc5ccc(C(F)(F)F)cc5[nH]4)cc3)c2)C1", "note": "(stereo not drawn)", "IC50": 520}
